{"source": "patent US12448705B2", "about": "“Bacteriophage compositions and methods of selection of components against specific bacteria” (priority 2016, dated 2025)", "format_in_all_cases": "cell-based", "key": {"[1]": {"test_system": "vancomycin-resistant E. faecalis (VRE)", "assay": "microbe, parasite or virus in culture", "method": "A culture of VRE was first grown in tryptic soy broth (Remel Cat #R455054) to an Optical Density (OD) of 0.5 at 600 nm. Tryptic soy with tetrazolium dye D (BioLog Cat #74224) was added to a 1% v/v ratio and then sterilized through a 0.22 μm filtration unit (Millipore Cat #SCGP00525). VRE stock phage was serially diluted in tryptic soy broth with dye in separate Eppendorf tubes to a final concentration of 10^7 pfu/ml. Vancomycin (Sigma, Cat #SBR00001-10 ml) was diluted separately in tryptic soy broth with tetrazolium dye to a concentration equal to 4 times the Minimal Inhibition Concentration (MIC) for the bacteria being used.\nBriefly, microtiter plates for the phage-antibiotics synergy assay were prepared as follows. Tryptic soy broth with dye was added to the plate first. Next 50 μl of tryptic soy with tetrazolium dye was added to each well. […] The wells with Vancomycin were serially diluted 1:1 from row A down to row F. Phage were added to each well starting at 10^7 pfu/well in column 1 and then serially diluted 1:10 across from column 1 to 6. Individual phage was added at an MOI of 100. Finally all wells were inoculated with approximately 10^4 cfu of E. faecalis bacteria per well. […] The color change of all plates was recorded every 15 minutes over the course of the 48 hour incubation period."}, "[2]": {"test_system": "meropenem^R K. pneumoniae 4640", "assay": "Phage efficacy assay with meropenem and phage", "conditions": "alone; meropenem 4 μg/ml; phage MOI 100; 48 hours at 37° C.", "procedure": "The assay is based on the interaction between lytic phage and bacteria in a liquid environment. In this liquid assay system, tetrazolium dye is added with media. During active growth of bacteria, cellular respiration reduces the tetrazolium dye and produces a color change that is captured by a camera. In this system as many as 400 phage efficacy assays in the presence of a targeted bacterium can be performed simultaneously but separately, thus allowing monitoring of the kinetics of bacterial growth and the development of resistance over the course of the experiment. The interpretation of such phage-bacterial interaction data in liquid environment permits the selection of phages that are highly virulent against the given bacteria, evidenced by a hold-time of at least 4 hours. Further selection of these phages for cocktail preparation is evaluated using the same liquid assay in the presence of various mixtures of these virulent phages.\nUsing the phage efficacy assay described in Example 1, 10^4 cfu of meropenem^R K. pneumoniae was grown at 37° C. for 48 hours in the following conditions: (a) alone; (b) meropenem or phage (MOI 100); and (c) meropenem and varying MOIs of phage (MOI 0.01-100). The concentration of meropenem used for the indicated cultures was 4 μg/ml. […] The readout of this assay is bacterial growth hold-time."}, "A. baumannii strain TP3 [3]": {"test_system": "A. baumannii strain TP3", "assay": "Checkerboard assay, phage cocktail and minocycline", "conditions": "Acinetobacter baumannii, TP3, read-out: Minimal Inhibition Concentration (MIC)"}, "A. baumannii strain TP3 [4]": {"test_system": "A. baumannii strain TP3", "assay": "Minocycline ETEST", "conditions": "Acinetobacter baumannii, TP3, read-out: IC50 of A. baumannii strain TP3 to minocycline by ETEST", "procedure": "For example, this assay was performed in order to better understand the interaction between the phage cocktail and minocycline administered in combination to the patient discussed in Example 5. Specifically, each well of a 96 well plate contained tryptic soy media with 1% tetrazolium dye (v/v) for bacterial growth media. […] The wells with antibiotics were then serially diluted 1:1 from row A down to row F. Phage were then added to each well starting at 10^7 pfu per well in column 1 and then serially diluted 1:10 across from column 1 to 6. All wells were then inoculated with approximately 10^4 cfu of bacteria per well. This design allows for antibiotic dilutions going down the columns and dilutions of phage going across the rows. Columns 7 and 8 represent antibiotic control wells and rows G and H represent phage control wells. However, wells G7, G8, H7, and H8 represent bacteria only control wells. […] The IC50 of A. baumannii strain TP3 to minocycline by ETEST (bioMerieux USA, Durham, NC) was 4 μg/mL."}, "A. baumannii isolate": {"test_system": "A. baumannii isolate", "assay": "Minocycline susceptibility of patient's isolate", "conditions": "day 115, previously obtained isolate"}}}
{"compound": "CN[C@H](CC(C)C)C(=O)N[C@H]1C(=O)N[C@@H](CC(N)=O)C(=O)N[C@H]2C(=O)N[C@H]3C(=O)N[C@H](C(=O)N[C@H](C(=O)O)c4cc(O)cc(O)c4-c4cc3ccc4O)[C@H](O)c3ccc(c(Cl)c3)Oc3cc2cc(c3O[C@@H]2O[C@H](CO)[C@@H](O)[C@H](O)[C@H]2O[C@H]2C[C@](C)(N)[C@H](O)[C@H](C)O2)Oc2ccc(cc2Cl)[C@H]1O", "note": "[Vancomycin]", "values": [{"measurement": "delay of bacterial growth", "setting": "[1]; 10^4 cfu per well, phage MOI of 100, vancomycin 16 μg/ml, 48 hours at 37° C., FIG. 25", "value": "up to 18 hours"}, {"measurement": "MIC", "setting": "[1]; Enterococcus faecalis, VRE, read-out: minimal inhibitory concentration for E. faecalis", "value": 16, "unit": "µg/mL"}]}
{"compound": "C[C@@H](O)[C@H]1C(=O)N2C(C(=O)O)=C(S[C@@H]3CN[C@H](C(=O)N(C)C)C3)[C@H](C)[C@H]12", "note": "[meropenem]", "values": [{"measurement": "hold-time", "setting": "[2]", "value": "approximately 6 hours"}]}
{"compound": "CN(C)c1ccc(O)c2c1C[C@H]1C[C@H]3[C@H](N(C)C)C(O)=C(C(N)=O)C(=O)[C@@]3(O)C(O)=C1C2=O", "note": "[minocycline]", "values": [{"measurement": "MIC", "setting": "A. baumannii strain TP3 [3]", "value": 32, "unit": "µg/mL"}, {"measurement": "IC50", "setting": "A. baumannii strain TP3 [4]", "value": 4, "unit": "µg/mL"}, {"measurement": "concentration at which isolate found susceptible", "setting": "A. baumannii isolate", "value": 3, "unit": "µg/mL"}]}
